In US7351732B2, “Cycloalkanedione derivatives, method for the production thereof and their pharmacological applications” (Schwarz Pharma S.L., priority 2002, dated 2008) one finds melting point and Ki data, which are given here for 27 molecules.

Structures can show the parent of a compound that is named as a salt. Where two headings read alike, the source gives them in different places.

One series has as its target T1, 5-HT1A (Rattus norvegicus, UniProt P19327).
T1 sequence (P19327 1-422): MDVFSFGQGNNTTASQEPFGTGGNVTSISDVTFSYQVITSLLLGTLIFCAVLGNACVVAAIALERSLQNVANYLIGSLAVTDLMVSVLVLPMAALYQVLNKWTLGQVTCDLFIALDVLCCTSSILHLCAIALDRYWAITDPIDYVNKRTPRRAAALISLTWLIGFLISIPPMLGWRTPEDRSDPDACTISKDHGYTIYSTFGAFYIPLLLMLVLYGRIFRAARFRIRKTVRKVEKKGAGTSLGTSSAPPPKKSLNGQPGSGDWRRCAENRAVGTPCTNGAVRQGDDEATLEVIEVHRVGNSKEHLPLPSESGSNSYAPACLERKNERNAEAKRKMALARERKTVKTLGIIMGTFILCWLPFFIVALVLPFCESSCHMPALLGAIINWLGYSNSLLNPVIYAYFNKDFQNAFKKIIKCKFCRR
The series is described as follows: Radioligand displacement, 5-HT1A receptors, [3H]-8-OH-DPAT. The class given is binding. Further details: (a) 5-HT1A receptors, [^3H]-8-OH-DPAT, rat cerebral cortex; from tissue; host or cells: rat cerebral cortex. The settings on record: rat cerebral cortex, read-out: Ki ± E.E. 5-HT1A.

The next series addresses T2, 5-HT2A receptors (Rattus norvegicus, UniProt P14842).
T2 construct: (b) 5-HT2A receptors, [^3H]ketanserin, rat cerebral cortex; from tissue; host or cells: rat cerebral cortex
Put plainly: Radioligand displacement, 5-HT2A receptors, [3H]ketanserin. Format: binding. The settings on record: rat cerebral cortex, read-out: Ki ± E.E. 5-HT2A.

A further series has as its target T3, 5-HT7 receptors (Rattus norvegicus, UniProt P32305).
T3 construct: (e) 5-HT7 receptors, [^3H]-5-CT, rat hypothalamus; from tissue; host or cells: rat hypothalamus
Put plainly: Radioligand displacement, 5-HT7 receptors, [3H]-5-CT. The class given is binding. The settings on record: read-out: Ki ± E.E. 5-HT7.

A further series has as its target α1 receptors. Put plainly: Radioligand displacement, α1 receptors, [3H]prazosin. Format: binding. The following applies: rat cerebral cortex, read-out: Ki ± E.E. α1.
The target of the next series is T4, D2 receptors (Rattus norvegicus, UniProt P61169).
T4 construct: (g) D2 receptors, [^3H]spiperone, rat striatum; from tissue; host or cells: rat striatum
Put plainly: Radioligand displacement, D2 receptors, [3H]spiperone. Format: binding. The settings on record: rat striatum, read-out: Ki ± E.E. D2.

The next series addresses T5, 5-HT4 receptors (Rattus norvegicus, UniProt Q62758).
T5 construct: (d) 5-HT4 receptors, [^3H]GR 113808, rat striatum; from tissue; host or cells: rat striatum
Put plainly: Radioligand displacement, 5-HT4 receptors, [3H]GR 113808. Format: binding. The settings on record: [3H]GR 113808, rat striatum; read-out: Ki ± E.E. 5-HT4.

The target of the next series is T6, 5-HT3 receptors (Rattus norvegicus, UniProt P35563).
T6 construct: (c) 5-HT3 receptors, [^3H]LY 278584, rat cerebral cortex; from tissue; host or cells: rat cerebral cortex
T6 sequence (P35563 24-483): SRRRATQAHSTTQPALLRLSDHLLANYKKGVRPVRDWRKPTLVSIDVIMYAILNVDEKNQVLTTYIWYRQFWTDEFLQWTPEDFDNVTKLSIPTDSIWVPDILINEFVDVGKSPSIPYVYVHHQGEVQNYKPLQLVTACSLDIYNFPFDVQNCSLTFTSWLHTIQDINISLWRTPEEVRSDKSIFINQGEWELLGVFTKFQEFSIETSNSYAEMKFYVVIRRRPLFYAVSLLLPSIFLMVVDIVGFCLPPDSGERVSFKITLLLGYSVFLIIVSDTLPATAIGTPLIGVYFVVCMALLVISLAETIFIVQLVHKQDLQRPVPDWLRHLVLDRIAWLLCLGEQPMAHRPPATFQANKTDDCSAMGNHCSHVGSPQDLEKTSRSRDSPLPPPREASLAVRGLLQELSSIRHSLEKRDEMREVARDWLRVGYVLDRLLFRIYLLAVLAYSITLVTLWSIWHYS
Put plainly: Radioligand displacement, 5-HT3 receptors, [3H]LY 278584. The class given is binding. The settings on record: [3H]LY 278584, rat cerebral cortex; read-out: Ki ± E.E. 5-HT3.

T4 sequence (P61169 whole entry): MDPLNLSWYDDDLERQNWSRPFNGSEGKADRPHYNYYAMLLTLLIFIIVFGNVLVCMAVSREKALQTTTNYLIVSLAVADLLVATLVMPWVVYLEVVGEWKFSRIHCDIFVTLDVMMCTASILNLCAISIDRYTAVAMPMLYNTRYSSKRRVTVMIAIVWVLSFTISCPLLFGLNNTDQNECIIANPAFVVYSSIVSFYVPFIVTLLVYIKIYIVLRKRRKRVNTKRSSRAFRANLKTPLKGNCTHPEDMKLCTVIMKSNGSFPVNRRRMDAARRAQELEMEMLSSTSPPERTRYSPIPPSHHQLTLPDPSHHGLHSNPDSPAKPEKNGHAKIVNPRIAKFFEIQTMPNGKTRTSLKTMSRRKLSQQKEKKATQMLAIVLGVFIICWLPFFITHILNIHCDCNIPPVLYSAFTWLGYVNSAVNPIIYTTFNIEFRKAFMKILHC
T5 sequence (Q62758 whole entry): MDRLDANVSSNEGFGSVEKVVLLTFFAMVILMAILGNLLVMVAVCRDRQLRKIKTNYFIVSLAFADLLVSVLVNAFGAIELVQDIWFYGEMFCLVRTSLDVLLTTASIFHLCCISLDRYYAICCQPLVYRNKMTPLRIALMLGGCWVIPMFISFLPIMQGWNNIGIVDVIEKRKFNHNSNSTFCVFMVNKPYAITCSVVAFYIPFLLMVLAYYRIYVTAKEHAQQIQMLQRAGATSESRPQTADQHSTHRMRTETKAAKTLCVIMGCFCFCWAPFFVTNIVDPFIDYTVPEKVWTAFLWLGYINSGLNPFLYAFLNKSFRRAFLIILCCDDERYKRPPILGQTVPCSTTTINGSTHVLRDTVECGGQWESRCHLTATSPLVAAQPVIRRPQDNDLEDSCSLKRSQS
T3 sequence (P32305 whole entry): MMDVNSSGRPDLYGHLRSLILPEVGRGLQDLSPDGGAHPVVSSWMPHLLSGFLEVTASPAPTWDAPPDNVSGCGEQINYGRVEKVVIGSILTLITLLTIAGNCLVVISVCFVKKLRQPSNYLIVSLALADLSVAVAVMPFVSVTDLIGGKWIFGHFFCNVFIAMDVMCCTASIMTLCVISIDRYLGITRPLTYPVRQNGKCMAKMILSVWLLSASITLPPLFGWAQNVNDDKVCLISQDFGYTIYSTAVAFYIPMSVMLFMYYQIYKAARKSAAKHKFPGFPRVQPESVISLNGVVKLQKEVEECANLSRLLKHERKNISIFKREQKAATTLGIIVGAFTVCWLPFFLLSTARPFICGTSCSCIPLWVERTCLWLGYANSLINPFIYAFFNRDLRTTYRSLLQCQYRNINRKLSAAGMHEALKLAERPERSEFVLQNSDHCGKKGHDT
T2 sequence (P14842 whole entry): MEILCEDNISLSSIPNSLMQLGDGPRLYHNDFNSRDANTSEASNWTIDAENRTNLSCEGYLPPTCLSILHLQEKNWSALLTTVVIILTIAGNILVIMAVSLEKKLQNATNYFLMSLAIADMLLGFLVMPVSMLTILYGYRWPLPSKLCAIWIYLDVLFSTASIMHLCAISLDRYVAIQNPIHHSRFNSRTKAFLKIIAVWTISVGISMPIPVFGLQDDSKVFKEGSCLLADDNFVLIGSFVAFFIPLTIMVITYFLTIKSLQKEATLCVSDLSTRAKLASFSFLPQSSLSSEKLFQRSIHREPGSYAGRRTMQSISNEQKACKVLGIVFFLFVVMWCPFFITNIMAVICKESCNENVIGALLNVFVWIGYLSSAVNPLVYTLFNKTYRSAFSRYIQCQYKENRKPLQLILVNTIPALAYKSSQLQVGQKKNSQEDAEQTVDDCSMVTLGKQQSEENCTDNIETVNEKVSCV

Turning to `O=C1C2CCCN2C(=O)N1CCCCNCc1cccc2ccccc12` (centres unmarked) (as salt: hydrochloride) [Compound 7, 2-[4-[(Naphth-1-yl)methylamine]butyl]-1,3-dioxoperhydropyrrolo[1,2-c]imidazol], the melting point was in the range of 150 to 153 °C. Still for that read-out and setting: as for `O=C1C2CCCN2C(=O)N1CCCCNCc1ccc2ccccc2c1` (centres unmarked) (as salt: hydrochloride) [Compound 8, 2-[4-[(Naphth-2-yl)methylamine]butyl]-1,3-dioxoperhydropyrrolo[1,2-c]imidazol], the figure is 125 to 127 °C; as for `O=C1C2CCCN2C(=O)N1CCCCNCCc1cccc2ccccc12` (centres unmarked) (as salt: hydrochloride) [Compound 9, 2-[4-[2-(Naphth-1-yl)ethylamine]butyl]-1,3-dioxoperhydropyrrolo[1,2-c]imidazol], 95 to 97 °C.

Regarding `O=C1CSC(=O)N1CCCCNCCc1cccc2ccccc12` (as salt: hydrochloride) [Compound 10, 3-[4-[2-(Naphth-1-yl)ethylamine]butyl]-2,4-dioxothiazolidin], the melting point lay within 128 to 129 °C. Still for that read-out and setting: as for `O=C1C2CCCN2C(=O)N1CCCCNCCc1ccc2ccccc2c1` (centres unmarked) (as salt: hydrochloride) [Compound 11, 2-[4-[2-(Naphth-2-yl)ethylamine]butyl]-1,3-dioxoperhydropyrrolo[1,2-c]imidazol], the figure is 130 to 132 °C; as for `O=C1CSC(=O)N1CCCCNCCOc1ccccc1` (as salt: hydrochloride) [Compound 13, 3-[4-[2-(Phenoxy)ethylamine]butyl]-2,4-dioxothiazolidin], 173 to 174 °C; as for `O=C1C2CCCN2C(=O)N1CCCCNCCOc1cccc2ccccc12` (centres unmarked) (as salt: hydrochloride) [Compound 14, 2-[4-[2-(Naphth-1-oxi)ethylamine]butyl]-1,3-dioxoperhydropyrrolo[1,2-c]imidazol], 163 to 164 °C. Still for that read-out and setting: as for `O=C1CSC(=O)N1CCCCNCCOc1cccc2ccccc12` (as salt: hydrochloride) [Compound 15, 3-[4-[2-(Naphth-1-oxi)ethylamine]butyl]-2,4-dioxothiazolidin], the figure is 149 to 151 °C. Still for that read-out and setting: as for `O=C1C2CCCN2C(=O)N1CCCCNCc1nc2ccccc2[nH]1` (centres unmarked) (as salt: hydrochloride) [Compound 16, 2-[4-[(Benzimidazol-2-yl)methylamine]butyl]-1,3-dioxoperhydropyrrolo[1,2-c]imidazol], the figure is 208 to 210 °C; as for `COc1ccccc1CCNCCCCN1C(=O)C2CCCN2C1=O` (centres unmarked) (as salt: hydrochloride) [Compound 18, 2-[4-[2-(o-Methoxyphenyl)ethylamine]butyl]-1,3-dioxoperhydropyrrolo[1,2-c]imidazol], 160 to 162 °C. `O=C1C2SCCN2C(=O)N1CCCCNCC1CCc2ccccc2O1` (racemic) (as salt: hydrochloride) [Compound 2, (±)-2-[4-[(Chroman-2-yl)methylamine]butyl]-1,3-dioxoperhydroimidazo[1,5-b]thiazol] displayed a melting point of 149 to 151 °C.

Molecule `O=C1C2CSCN2C(=O)N1CCCCNCC1CCc2ccccc2O1` (racemic) (as salt: hydrochloride) [Compound 3, (±)-2-[4-[(Chroman-2-yl)methylamine]butyl]-1,3-dioxoperhydroimidazo[1,5-c]-thiazol] came in with a melting point of 142 to 144 °C. On the same count and under the same terms, as for `O=C1CSC(=O)N1CCCCCCNCC1CCc2ccccc2O1` (racemic) (as salt: hydrochloride) [Compound 6, (±)-3-[6-[(Chroman-2-yl)methylamine]hexyl]-2,4-dioxothiazolidin], the figure is 175 to 177 °C. Take `O=C1CSC(=O)N1CCCCCNCC1CCc2ccccc2O1` (racemic) [Compound 5, (±)-3-[5-[(Chroman-2-yl)methylamine]pentyl]-2,4-dioxothiazolidin]: at 5-HT1A, the Ki came out at 5.5 ± 0.4 nM.

As to `O=C1CSC(=O)N1CCCCCCNCC1CCc2ccccc2O1` (racemic) [Compound 6, (±)-3-[6-[(Chroman-2-yl)methylamine]hexyl]-2,4-dioxothiazolidin], at 5-HT1A, the Ki stood at 1.3 ± 0.2 nM.

For the molecule `CN(C)CCCSc1ccccc1NC(=O)/C=C/c1ccccc1` [Cinanserine, reference compound], the Ki on 5-HT2A receptors turned out to be 2.6 ± 0.4 nM. For `NCCc1c[nH]c2ccc(C(N)=O)cc12` [Compound 5-CT, 5-CT, reference compound], the Ki on 5-HT7 receptors ([3H]-5-CT, rat hypothalamus) is 1.8 ± 0.6 nM. On to `O=C1C2CCCN2C(=O)N1CCCCNCc1cccc2ccccc12` (centres unmarked) [Compound 7, 2-[4-[(Naphth-1-yl)methylamine]butyl]-1,3-dioxoperhydropyrrolo[1,2-c]imidazol], for which the Ki is 49.6 ± 2.9 nM at α1 receptors; above 1000 nM on 5-HT2A receptors; above 10000 nM at 5-HT7 receptors ([3H]-5-CT, rat hypothalamus); above 10000 nM at D2 receptors; above 10000 nM on 5-HT4 receptors. Take `O=C1C2CCCN2C(=O)N1CCCCNCc1ccc2ccccc2c1` (centres unmarked) [Compound 8, 2-[4-[(Naphth-2-yl)methylamine]butyl]-1,3-dioxoperhydropyrrolo[1,2-c]imidazol]: the Ki on 5-HT1A stood at 51.01 ± 0.47 nM. With `CCCN(CCC)C1CCc2cccc(O)c2C1` (centres unmarked) [Compound 8-OH-DPAT, 8-OH-DPAT, reference compound], on 5-HT7 receptors, the Ki was 83.8 nM. Consider `O=C1C2CCCN2C(=O)N1CCCCNCCc1cccc2ccccc12` (centres unmarked) [Compound 9, 2-[4-[2-(Naphth-1-yl)ethylamine]butyl]-1,3-dioxoperhydropyrrolo[1,2-c]imidazol], for which the Ki was above 1000 nM at α1 receptors; 27.9 ± 3.1 nM at 5-HT1A; above 10000 nM on 5-HT2A receptors; above 10000 nM on D2 receptors; above 10000 nM on 5-HT4 receptors.

As for `O=C1C2CCCN2C(=O)N1CCCCNCCc1ccc2ccccc2c1` (centres unmarked) [Compound 11, 2-[4-[2-(Naphth-2-yl)ethylamine]butyl]-1,3-dioxoperhydropyrrolo[1,2-c]imidazol], the Ki at α1 receptors is 99 ± 14 nM; at 5-HT1A, 43.2 ± 4.5 nM; on 5-HT2A receptors it was 157.3 ± 0.65 nM; on 5-HT3 receptors, above 10000 nM; at 5-HT7 receptors ([3H]-5-CT, rat hypothalamus), 74 ± 7.3 nM; at 5-HT4 receptors, 594 ± 43.7 nM. For the molecule `O=C1CSC(=O)N1CCCCNCCOc1cccc2ccccc12` [Compound 15, 3-[4-[2-(Naphth-1-oxi)ethylamine]butyl]-2,4-dioxothiazolidin], the Ki on α1 receptors is 54.7 ± 1.8 nM; on 5-HT1A, 4.5 ± 0.2 nM; at 5-HT2A receptors, 38.5 ± 7.7 nM; at 5-HT3 receptors, above 10000 nM; at 5-HT7 receptors ([3H]-5-CT, rat hypothalamus), 19.9 ± 0.8 nM; at D2 receptors, above 1000 nM. Take `COc1ccccc1CNCCCCN1C(=O)C2CCCN2C1=O` (centres unmarked) [Compound 17, 2-[4-[(o-Methoxyphenyl)methylamine]butyl]-1,3-dioxoperhydropyrrolo[1,2-c]imidazol]: the Ki at α1 receptors and on 5-HT1A was above 10000 nM in each case. Consider `COc1ccccc1CCNCCCCN1C(=O)C2CCCN2C1=O` (centres unmarked) [Compound 18, 2-[4-[2-(o-Methoxyphenyl)ethylamine]butyl]-1,3-dioxoperhydropyrrolo[1,2-c]imidazol], for which the Ki at α1 receptors is above 1000 nM; on 5-HT1A it was 868 ± 23.1 nM; on 5-HT2A receptors, above 10000 nM; on D2 receptors, above 10000 nM; at 5-HT4 receptors, above 10000 nM. Take `Cc1ccc(N(CC2=NCCN2)c2cccc(O)c2)cc1` [Phentolamine, reference compound]: the Ki on α1 receptors worked out at 6.1 ± 0.1 nM. Take `COc1cc(COc2cc(N)c(Cl)cc2C(=O)CCC2CCN(CCNS(C)(=O)=O)CC2)cc(OC)c1` [RS-39604, reference compound]: at 5-HT4 receptors, the Ki was determined as 3.9 ± 0.2 nM.
